Experiments:
[1] = target: T1, ABCD3 ATP-binding cassette sub-family D member 3 (Homo sapiens, UniProt P28288); experiment: Cysteine liganding, probe competition
T1 construct: Cells were resuspended in cold PBS on ice and sonicated with a probe sonicator to achieve lysis; endogenous in cells
Protocol: Cells were resuspended in cold PBS on ice and sonicated with a probe sonicator to achieve lysis. 200 μL of lysate containing 5 mg/ml proteome was treated with 2 μL of 100× compound stock in a 2-mL deep-well plate. The treated lysate was subsequently incubate at 25° C. for 1 hr with shaking at 600 rpm. The treated lysate was further incubated with 2 μL of 10 mM desthiobiotin iodoacetamide probe at 25° C. for 1 hr with shaking at 600 rpm. Next, the lysate was further treat with 20 μL of solution of PBS containing 11 mM MgSO4 and 2.5% Turbonuclease stock and incubated at 25° C. for 20 minutes with shaking at 600 rpm. 1.7 mL ice-cold acetone was added to each well and incubated at −20° C. for 2 hr, followed by max speed (4200 rpm) spin for 45 min. Acetone was then decanted and the plates were blotted to remove acetone. The plates were then dried in open air for 20 minutes. After drying, the plates were then covered with foil seal and stored at −80° C. overnight.
The next day, samples were re-suspended in 90 μL of solution of 9M urea, 50 mM ammonium bicarbonate and 10 mM DTT by incubating at 65C for 20 min with shaking at 1500 rpm. Next, samples were cooled to 37° C. and then 10 μL of 500 mM iodoacetamide solution (92.48 mg/ml) was added. The samples were then incubated at 37° C. for 30 min with shaking at 600 rpm. […]

[2] = target: T2, DTL Denticleless protein homolog (Homo sapiens, UniProt Q9NZJ0); experiment: Cysteine liganding, probe competition; assay type: binding
T2 construct: Cells were resuspended in cold PBS on ice and sonicated with a probe sonicator to achieve lysis; endogenous in cells
Summary of the method: (§1)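 Lysates from probe-sonicated cells in PBS (5 mg/ml proteome) were exposed to compound for 1 hr at 25° C, then labelled with desthiobiotin iodoacetamide probe (10 mM stock) for 1 hr at 25° C. Probe-tagged peptides were streptavidin-enriched after trypsin digestion.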

[3] = target: T3, HNRPLL Heterogeneous nuclear ribonucleoprotein L-like (Homo sapiens, UniProt Q8WVV9); experiment: Cysteine liganding, probe competition; assay type: binding; details: HNRPLL Res# 464, uniprot Q8WVV9
T3 construct: Cells were resuspended in cold PBS on ice and sonicated with a probe sonicator to achieve lysis; endogenous in cells
Summary of the method: as §1

[4] = target: T4, L3MBTL3 Lethal(3)malignant brain tumor-like protein 3 (Homo sapiens, UniProt Q96JM7); experiment: Cysteine liganding, probe competition; assay type: binding; details: L3MBTL3 Res# 233, uniprot Q96JM7
T4 construct: Cells were resuspended in cold PBS on ice and sonicated with a probe sonicator to achieve lysis; endogenous in cells
Summary of the method: as §1

[5] = target: T5, NT5DC2 5-nucleotidase domain-containing protein 2 (Homo sapiens, UniProt Q9H857); experiment: Cysteine liganding, probe competition; assay type: binding
T5 construct: Cells were resuspended in cold PBS on ice and sonicated with a probe sonicator to achieve lysis; endogenous in cells
Summary of the method: as §1

[6] = target: T6, SPAG5 Sperm-associated antigen 5 (Homo sapiens, UniProt Q96R06); experiment: Cysteine liganding, probe competition; assay type: binding; details: SPAG5 Res# 382, uniprot Q96R06
T6 construct: Cells were resuspended in cold PBS on ice and sonicated with a probe sonicator to achieve lysis; endogenous in cells
Summary of the method: as §1

[7] = target: T7, Q8NF64 (Homo sapiens, UniProt Q8NF64); experiment: Cysteine liganding, probe competition (Table 2B); assay type: binding; details: one line per cysteine site, read-out: KB02_500 uM_percent_inhibition
T7 construct: 200 μL of lysate containing 5 mg/ml proteome was treated with 2 μL of 100× compound stock; endogenous in cells
Source text: (§2) The following 96-well sample prep protocol was used for sample preparation.

[8] = target: T8, Q9C0D3 (Homo sapiens, UniProt Q9C0D3); experiment: Cysteine liganding, probe competition (Table 2B); assay type: binding; details: one line per cysteine site, read-out: KB05_100 uM_percent_inhibition
T8 construct: endogenous in cells; whole-cell lysate
Source text: as §2

[9] = target: T9, Q9ULT6 (Homo sapiens, UniProt Q9ULT6); experiment: Cysteine liganding, probe competition (Table 2B); assay type: binding; details: one line per cysteine site, read-out: KB05_500 uM_percent_inhibition
T9 construct: 200 μL of lysate containing 5 mg/ml proteome was treated with 2 μL of 100× compound stock; endogenous in cells
Source text: as §2

[10] = target: T10, FDFT1 Squalene synthase (Homo sapiens, UniProt P37268); experiment: Cysteine liganding, probe competition; assay type: binding
T10 construct: 200 μL of lysate containing 5 mg/ml proteome was treated with 2 μL of 100× compound stock; endogenous in cells
T10 sequence (P37268 1-417): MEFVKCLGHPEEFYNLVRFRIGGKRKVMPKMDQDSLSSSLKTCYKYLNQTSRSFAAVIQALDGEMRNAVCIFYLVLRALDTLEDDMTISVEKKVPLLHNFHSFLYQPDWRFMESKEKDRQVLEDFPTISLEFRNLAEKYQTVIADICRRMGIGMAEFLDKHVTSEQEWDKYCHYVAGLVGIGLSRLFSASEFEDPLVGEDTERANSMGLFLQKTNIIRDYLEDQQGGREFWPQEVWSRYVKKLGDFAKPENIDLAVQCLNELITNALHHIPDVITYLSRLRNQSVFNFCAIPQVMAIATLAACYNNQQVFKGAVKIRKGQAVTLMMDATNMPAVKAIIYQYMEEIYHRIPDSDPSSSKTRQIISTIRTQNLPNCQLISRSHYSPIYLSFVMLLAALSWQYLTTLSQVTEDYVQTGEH
Summary of the method: as §1

T5 sequence (Q9H857 whole entry, the tested form may be a part): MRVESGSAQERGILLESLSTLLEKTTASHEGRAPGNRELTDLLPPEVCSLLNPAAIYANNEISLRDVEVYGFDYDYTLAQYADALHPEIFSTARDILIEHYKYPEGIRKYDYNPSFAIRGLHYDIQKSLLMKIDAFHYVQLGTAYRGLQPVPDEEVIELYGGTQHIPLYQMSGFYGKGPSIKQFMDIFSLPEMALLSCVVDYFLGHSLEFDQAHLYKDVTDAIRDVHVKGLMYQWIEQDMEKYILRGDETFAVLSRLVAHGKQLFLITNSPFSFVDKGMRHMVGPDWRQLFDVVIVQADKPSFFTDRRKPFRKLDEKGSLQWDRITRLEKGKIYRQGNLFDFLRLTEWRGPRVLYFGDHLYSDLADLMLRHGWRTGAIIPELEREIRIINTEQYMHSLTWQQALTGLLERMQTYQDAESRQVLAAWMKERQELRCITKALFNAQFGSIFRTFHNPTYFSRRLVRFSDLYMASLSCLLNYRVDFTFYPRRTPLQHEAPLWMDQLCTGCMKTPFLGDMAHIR
T2 sequence (Q9NZJ0 whole entry): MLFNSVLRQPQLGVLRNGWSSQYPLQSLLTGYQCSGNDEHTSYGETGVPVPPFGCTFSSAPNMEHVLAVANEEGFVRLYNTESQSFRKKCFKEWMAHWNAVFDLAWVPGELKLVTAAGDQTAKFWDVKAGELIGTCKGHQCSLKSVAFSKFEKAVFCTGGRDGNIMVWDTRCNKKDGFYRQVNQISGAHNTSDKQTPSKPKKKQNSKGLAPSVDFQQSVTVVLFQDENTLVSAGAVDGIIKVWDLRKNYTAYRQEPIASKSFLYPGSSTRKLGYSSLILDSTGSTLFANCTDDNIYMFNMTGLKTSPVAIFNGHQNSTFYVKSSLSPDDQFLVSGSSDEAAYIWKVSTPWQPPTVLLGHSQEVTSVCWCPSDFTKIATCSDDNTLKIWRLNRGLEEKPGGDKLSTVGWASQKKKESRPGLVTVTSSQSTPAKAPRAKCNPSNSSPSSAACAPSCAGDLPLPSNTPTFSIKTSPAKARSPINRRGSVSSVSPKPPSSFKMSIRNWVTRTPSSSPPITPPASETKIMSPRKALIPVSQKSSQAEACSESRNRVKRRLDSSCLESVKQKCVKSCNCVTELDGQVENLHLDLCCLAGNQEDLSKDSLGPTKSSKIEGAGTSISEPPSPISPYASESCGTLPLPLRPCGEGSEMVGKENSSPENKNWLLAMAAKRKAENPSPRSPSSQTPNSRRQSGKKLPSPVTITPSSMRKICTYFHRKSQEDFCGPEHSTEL
T1 sequence (P28288 whole entry): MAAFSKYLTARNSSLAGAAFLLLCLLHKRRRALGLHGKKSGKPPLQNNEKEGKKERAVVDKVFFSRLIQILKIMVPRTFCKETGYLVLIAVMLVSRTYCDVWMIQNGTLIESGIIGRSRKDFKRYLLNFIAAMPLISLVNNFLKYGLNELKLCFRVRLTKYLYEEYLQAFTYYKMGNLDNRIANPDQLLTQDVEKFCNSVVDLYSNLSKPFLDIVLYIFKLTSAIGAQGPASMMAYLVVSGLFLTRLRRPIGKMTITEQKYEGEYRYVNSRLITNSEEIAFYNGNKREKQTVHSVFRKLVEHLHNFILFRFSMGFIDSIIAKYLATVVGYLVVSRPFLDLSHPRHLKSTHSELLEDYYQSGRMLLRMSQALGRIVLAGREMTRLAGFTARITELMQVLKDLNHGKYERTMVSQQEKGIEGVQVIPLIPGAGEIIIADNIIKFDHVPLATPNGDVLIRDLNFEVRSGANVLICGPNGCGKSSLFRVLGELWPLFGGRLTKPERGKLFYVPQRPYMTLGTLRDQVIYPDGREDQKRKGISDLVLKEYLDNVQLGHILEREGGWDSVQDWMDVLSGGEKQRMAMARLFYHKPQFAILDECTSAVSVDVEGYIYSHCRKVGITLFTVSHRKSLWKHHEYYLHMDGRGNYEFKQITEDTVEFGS
T6 sequence (Q96R06 whole entry): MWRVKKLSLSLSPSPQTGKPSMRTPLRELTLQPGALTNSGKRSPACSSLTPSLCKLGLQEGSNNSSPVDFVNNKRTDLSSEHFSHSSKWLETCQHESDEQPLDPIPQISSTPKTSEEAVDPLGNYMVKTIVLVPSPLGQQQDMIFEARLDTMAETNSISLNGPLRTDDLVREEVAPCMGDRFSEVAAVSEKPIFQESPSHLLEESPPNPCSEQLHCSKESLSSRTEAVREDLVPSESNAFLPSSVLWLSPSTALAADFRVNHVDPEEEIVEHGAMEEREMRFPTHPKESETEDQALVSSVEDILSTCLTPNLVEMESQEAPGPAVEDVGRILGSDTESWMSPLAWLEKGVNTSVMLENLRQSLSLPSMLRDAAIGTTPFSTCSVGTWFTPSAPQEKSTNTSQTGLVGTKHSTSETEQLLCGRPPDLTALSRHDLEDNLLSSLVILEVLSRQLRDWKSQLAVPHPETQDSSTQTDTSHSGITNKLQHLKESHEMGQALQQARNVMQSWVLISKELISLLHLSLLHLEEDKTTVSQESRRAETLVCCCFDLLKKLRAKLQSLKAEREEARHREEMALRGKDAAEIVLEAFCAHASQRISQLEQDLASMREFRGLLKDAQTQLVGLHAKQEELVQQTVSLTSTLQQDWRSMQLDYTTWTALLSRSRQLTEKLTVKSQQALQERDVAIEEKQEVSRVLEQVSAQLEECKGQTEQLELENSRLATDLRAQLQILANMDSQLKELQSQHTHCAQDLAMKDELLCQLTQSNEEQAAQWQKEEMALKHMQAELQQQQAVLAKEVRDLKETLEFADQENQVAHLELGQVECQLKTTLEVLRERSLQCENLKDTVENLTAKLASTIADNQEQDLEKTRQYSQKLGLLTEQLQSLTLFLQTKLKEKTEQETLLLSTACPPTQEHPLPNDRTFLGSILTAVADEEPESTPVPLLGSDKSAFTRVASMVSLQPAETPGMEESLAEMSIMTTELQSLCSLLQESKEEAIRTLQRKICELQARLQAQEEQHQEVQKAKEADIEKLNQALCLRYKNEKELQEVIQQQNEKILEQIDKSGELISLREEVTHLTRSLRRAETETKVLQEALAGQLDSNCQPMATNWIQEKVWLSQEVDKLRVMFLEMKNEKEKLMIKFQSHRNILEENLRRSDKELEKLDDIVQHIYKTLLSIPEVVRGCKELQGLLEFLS
T3 sequence (Q8WVV9 whole entry): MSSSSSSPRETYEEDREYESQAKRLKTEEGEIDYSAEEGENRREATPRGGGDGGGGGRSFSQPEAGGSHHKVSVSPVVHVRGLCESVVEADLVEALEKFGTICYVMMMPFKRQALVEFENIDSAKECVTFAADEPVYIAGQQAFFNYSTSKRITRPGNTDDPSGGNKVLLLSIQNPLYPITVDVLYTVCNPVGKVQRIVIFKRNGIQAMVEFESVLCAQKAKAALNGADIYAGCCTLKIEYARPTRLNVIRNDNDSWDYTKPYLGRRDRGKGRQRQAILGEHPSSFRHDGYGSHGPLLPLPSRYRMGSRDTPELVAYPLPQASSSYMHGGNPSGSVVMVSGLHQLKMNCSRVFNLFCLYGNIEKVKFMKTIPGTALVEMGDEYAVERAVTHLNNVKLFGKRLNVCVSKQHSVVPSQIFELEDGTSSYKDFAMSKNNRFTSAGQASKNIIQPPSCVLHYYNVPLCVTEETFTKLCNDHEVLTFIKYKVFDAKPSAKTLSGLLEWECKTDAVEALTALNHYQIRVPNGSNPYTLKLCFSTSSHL
T8 sequence (Q9C0D3 whole entry): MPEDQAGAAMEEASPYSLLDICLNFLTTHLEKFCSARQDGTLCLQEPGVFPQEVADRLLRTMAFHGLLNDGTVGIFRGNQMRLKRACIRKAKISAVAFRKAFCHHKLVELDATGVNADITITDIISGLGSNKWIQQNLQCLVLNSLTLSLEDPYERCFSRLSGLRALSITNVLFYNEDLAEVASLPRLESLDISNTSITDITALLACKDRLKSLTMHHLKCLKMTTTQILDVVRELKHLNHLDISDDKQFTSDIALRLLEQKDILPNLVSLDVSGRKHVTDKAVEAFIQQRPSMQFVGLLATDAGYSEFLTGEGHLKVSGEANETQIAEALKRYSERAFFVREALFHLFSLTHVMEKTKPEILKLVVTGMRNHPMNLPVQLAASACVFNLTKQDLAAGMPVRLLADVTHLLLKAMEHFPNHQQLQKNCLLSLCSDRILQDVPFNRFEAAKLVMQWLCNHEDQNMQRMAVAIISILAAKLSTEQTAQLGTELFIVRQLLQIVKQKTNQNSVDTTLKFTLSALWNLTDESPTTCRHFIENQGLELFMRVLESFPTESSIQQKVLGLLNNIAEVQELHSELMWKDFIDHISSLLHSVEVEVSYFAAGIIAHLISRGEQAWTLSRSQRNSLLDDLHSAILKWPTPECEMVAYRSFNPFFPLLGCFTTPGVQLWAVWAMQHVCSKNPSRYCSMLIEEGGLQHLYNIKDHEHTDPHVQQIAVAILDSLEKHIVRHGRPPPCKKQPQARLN

`COc1ccc2c(c1)CCCN2C(=O)CCl` [KB02] was tested, and the Liganded ([1]; ABCD3 Res# 472, uniprot P28288) was “YES”, the Liganded ([1]; ABCD3 Res# 477, uniprot P28288) was “YES” and the Liganded ([2]; DTL Res# 136, uniprot Q9NZJ0) was “YES”. For the same compound, the Liganded ([2]; DTL Res# 141, uniprot Q9NZJ0) was “YES”, the Liganded [3] was “YES” and the Liganded [4] was “YES”. For the same compound, the Liganded ([5]; NT5DC2 Res# 504, uniprot Q9H857) was “YES”, the Liganded ([5]; NT5DC2 Res# 507, uniprot Q9H857) was “YES” and the Liganded [6] was “YES”. It also gave an inhibition at 500 µM [7] of 46%.

`C=CC(=O)N(c1ccccc1)c1ccc(Br)cc1` [KB05] showed an inhibition at 100 µM [8] of 48% and an inhibition at 500 µM [9] of 36%.

In the case of `O=C(CCl)Nc1cc(C(F)(F)F)cc(C(F)(F)F)c1` [KBO3], the Liganded ([10]; FDFT1 Res# 6, uniprot P37268) is reported as “YES”, the “100 Max” value ([10]; uniprot P37268) is reported as 59.08 and the 100 ave ([10]; uniprot P37268) is reported as 37.7. The “500 Max” value ([10]; uniprot P37268) was 82.93 and the 500 ave ([10]; uniprot P37268) was 82.93.

From patent publication US20200239530A1, “COMPOUNDS AND METHODS OF MODULATING PROTEIN DEGRADATION” (Vividion Therapeutics, Inc., priority 2017, published 2020)
